Experimental data from paper PMC12044245 (Emerging Infectious Diseases, 2025).

Key:
[1] = system: recombinant A/WSN/33(H1N1) with PA I38N substitution; conditions: ref [3],[9]; cited from earlier work
[2] = system: recombinant A/Victoria/3/75(H3N2) with PA I38N substitution; conditions: ref [3],[9]; cited from earlier work
[3] = biological target: NA (neuraminidase) of A/Yamagata/103/2024 (Influenza A virus, UniProt C3W5S3); format: biochemical
[4] = biological target: NA (neuraminidase) of A/Yamagata/333/2023 (Influenza A virus, UniProt C3W5S3)

Compound | fold reduction in baloxavir susceptibility conferred by PA I38N substitution [1] [fold] | fold reduction in baloxavir susceptibility conferred by PA I38N substitution [2] [fold] | IC50 [3] [nM] | IC50 [4] [nM]
O=C1c2c(O)c(=O)ccn2N([C@@H]2c3ccccc3SCc3c2ccc(F)c3F)[C@@H]2COCCN12 [Baloxavir, baloxavir acid] | 24 | 10 | – | –
CCC(CC)[C@H](NC(C)=O)[C@@H]1[C@H](O)[C@@H](C(=O)O)C[C@H]1N=C(N)N [Peramivir, peramivir] | – | – | 0.11 | 0.08
